# ChEMBL document CHEMBL4371068, “Potent inhibitors of malarial P. Falciparum protein kinase G: Improving the cell activity of a series of imidazopyridines” (Bioorg Med Chem Lett, 2019)
# Experiment: Apparent permeability of the compound in phosphate buffer saline at 50 to 200 uM after 5 hrs by PAMPA
# Assay type: ADME
row,"Papp at 5 h, up to 200 µM [×10⁻⁶ cm/s]",SMILES
1,3.2,CN(C)Cc1ccc2c(c1)nc(-c1ccc(F)cc1)n2-c1ccnc(N)n1
2,18.5,CN(C)Cc1ccc2c(-c3ccnc(N)n3)c(-c3ccc(F)cc3)nn2c1
3,1,CN(C)CCNc1ccc2nc(-c3ccc(F)cc3)c(-c3ccnc(N)n3)n2n1
4,12.4,CN1CCC(n2cc(Nc3nccc(-c4c(-c5ccc(F)cc5)nc5ccccn45)n3)cn2)CC1
5,14.5,Fc1ccc(-c2nc3ccccn3c2-c2ccnc(NC3CCOCC3)n2)cc1
6,11.8,CN(C)Cc1ccn2c(-c3ccnc(N)n3)c(-c3ccc(F)cc3)nc2n1
7,5.8,CN(C)Cc1cc2nc(-c3ccc(F)cc3)c(-c3ccnc(N)n3)n2cn1
8,8.2,CN(C)CCCNc1nccc(-c2c(-c3ccc(F)cc3)nc3ccccn23)n1
